Key:
Assay type in all cases: biochemical
[1] = molecular target: KDR (VEGFR2) protein tyrosine kinase (Homo sapiens (Human), UniProt P35968); assay: Inhibition of KDR (VEGFR2) protein tyrosine kinase substrate phosphorylation, ELISA; conditions: for IC50: ELISA, ATP 5 μM, * average of three experiments ± SD, ** one experiment
Procedure: Kinase reaction substrate Poly(Glu, Tyr)4:1 (SIGMA);
(§1) (1) Kinase reaction substrate Poly(Glu,Tyr)4:1 was diluted to 20 µg/ml with potassium ion-free PBS, and enzyme labeled plate was coated by the substrate, reacted at 37° C. for 12-16 h, and then the liquid in holes was removed.
(§2) (2) Enzyme labeled plate was washed with T-PBS for 10 min three times.
(§3) (3) Enzyme labeled plate was dried at 37° C. in a dryer.
(§4) (4) The tested samples were added into holes of the coated enzyme labeled plate:
(§5) The tested samples was firstly formulated to be a 10^−2 M stock solution in DMSO, subpackaged and storaged at −20° C., and then diluted to required concentration with reaction buffer before use, added into the experiment holes to reach corresponding final concentration in a 100 μL reaction system. Meanwhile, positive control holes were created, and added with positive control compound Su11248.
(§6) (5) Adding ATP and the tested tyrosine kinase:
(§7) ATP solution (final concentration 5 μM) diluted with reaction buffer was added, and then tested tyrosine kinase diluted with reaction buffer was added. Total volume of the reaction system was 100 μL. Meanwhile, negative control holes and enzyme-free control holes were created.
(6) The reaction systems were placed in a wet box, reacted at 37° C. on a shaking table for 1 hour under a condition that light was prohibited, and after the reaction, the plate was washed with T-PBS for three times.
(7) Antibody PY99 100 μL/hole was added, reacted at 37° C. on a shaking table for 30 minutes. The plate was washed for three times with T-PBS.
(§8) (8) Horseradish peroxidase labeled Sheep anti mouse IgG 100 μL/hole was added, and reacted at 37° C. on a shaking table for 30 minutes. The plate was washed for three times with T-PBS.
(§9) (9) OPD coloring solution 100 μL/hole was added, and reacted at room temperature for 1-10 minutes under a condition that light was prohibited.
(§10) (10) 2M H2SO4 50 μL was added to terminate the reaction, and value A490 was measured by tunable wavelength type micro plate (Molecular Devices SPECTRAMAX190).
(§11) (11) The inhibition rate of the sample was obtained by the following equation:
(§12) [formula] Experimental Result

[2] = molecular target: PDGFR-β (Platelet-Derived Growth Factor Receptor β) protein tyrosine kinase (Homo sapiens (Human), UniProt P09619); assay: Inhibition of PDGFR-β protein tyrosine kinase substrate phosphorylation, ELISA; conditions: for IC50: ELISA, ATP 5 μM, * average of three experiments ± SD, ** one experiment; for inhibition of the activity of PDGFR-β tyrosine kinase, conclusion in words: at the molecular level
Procedure: Embodiment 19: Inhibition of Compound IIa, IIb, IIc and IId on the Activity of Catalyzing Substrate Phosphorylation of PDGFR-β (Platelet-Derived Growth Factor Receptor β) Protein Tyrosine Kinase at the Molecular Level: Enzyme-Linked Immunosorbent Assay (ELISA)
Tyrosine kinase PDGFR-β (MILLIPORE);
Kinase reaction substrate Poly(Glu,Tyr)4:1 (SIGMA);
as §1, §2, §3, §4
as §5, with “were” for “was”, “and” for “and added with”, “Su11248 was added.” for “Su11248.”
as §6, §7
(6) The reaction system were placed in a wet box, reacted at 37° C. on a shaking table for 1 hour under a condition that light was prohibited, and after the reaction, the plate was with T-PBS washed for three times.
(7) Antibody PY99 100 μL/hole was added, and reacted at 37° C. on a shaking table for 30 minutes. The plate was washed for three times with T-PBS.
as §8, §9, §10, §11, §12

Human HDAC1 = Human HDAC1 (Homo sapiens (Human), UniProt Q13547); assay: Inhibition of catalyzing activity of histone deacetylase 1 (HDAC1), fluorescence detection; conditions: for IC50: substrate Ac-Lys-Tyr-Lys(Ac)-AMC, * average of three experiments ± SD, ** one experiment
Procedure: Human HDAC1, obtained by utilizing baculovirus expression system;
Substrate, Ac-Lys-Tyr-Lys (Ac)-AMC;
Enzymatic activity was tested in 96-well or 384-well flat microwell plate by fluorescence detection and taking Ac-Lys-Tyr-Lys(Ac)-AMC as substrate. The tested samples was firstly formulated to be a 10^−2 M stock solution in DMSO, subpackaged and storaged at −20° C., and then diluted to required concentration with reaction buffer before use. […] The initial reaction speed was calculated by detecting the change of fluorescence signal with time.

Chain of Human HDAC1 (Q13547 whole entry): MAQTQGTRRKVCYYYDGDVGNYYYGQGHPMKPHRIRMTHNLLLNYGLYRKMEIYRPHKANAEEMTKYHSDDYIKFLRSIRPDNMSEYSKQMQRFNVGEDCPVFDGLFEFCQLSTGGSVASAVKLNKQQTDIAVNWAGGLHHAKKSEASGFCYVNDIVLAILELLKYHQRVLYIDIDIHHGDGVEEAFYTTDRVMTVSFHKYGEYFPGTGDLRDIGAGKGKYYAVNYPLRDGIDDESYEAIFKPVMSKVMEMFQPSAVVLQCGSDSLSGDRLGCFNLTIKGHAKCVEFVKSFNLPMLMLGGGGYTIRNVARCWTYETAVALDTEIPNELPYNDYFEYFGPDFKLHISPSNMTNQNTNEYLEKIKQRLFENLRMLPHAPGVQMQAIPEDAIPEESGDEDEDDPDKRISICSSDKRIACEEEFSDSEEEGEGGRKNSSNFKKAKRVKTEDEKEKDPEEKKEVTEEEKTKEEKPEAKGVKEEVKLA
Chain of PDGFR-β (Platelet-Derived Growth Factor Receptor β) protein tyrosine kinase (P09619 33-1106): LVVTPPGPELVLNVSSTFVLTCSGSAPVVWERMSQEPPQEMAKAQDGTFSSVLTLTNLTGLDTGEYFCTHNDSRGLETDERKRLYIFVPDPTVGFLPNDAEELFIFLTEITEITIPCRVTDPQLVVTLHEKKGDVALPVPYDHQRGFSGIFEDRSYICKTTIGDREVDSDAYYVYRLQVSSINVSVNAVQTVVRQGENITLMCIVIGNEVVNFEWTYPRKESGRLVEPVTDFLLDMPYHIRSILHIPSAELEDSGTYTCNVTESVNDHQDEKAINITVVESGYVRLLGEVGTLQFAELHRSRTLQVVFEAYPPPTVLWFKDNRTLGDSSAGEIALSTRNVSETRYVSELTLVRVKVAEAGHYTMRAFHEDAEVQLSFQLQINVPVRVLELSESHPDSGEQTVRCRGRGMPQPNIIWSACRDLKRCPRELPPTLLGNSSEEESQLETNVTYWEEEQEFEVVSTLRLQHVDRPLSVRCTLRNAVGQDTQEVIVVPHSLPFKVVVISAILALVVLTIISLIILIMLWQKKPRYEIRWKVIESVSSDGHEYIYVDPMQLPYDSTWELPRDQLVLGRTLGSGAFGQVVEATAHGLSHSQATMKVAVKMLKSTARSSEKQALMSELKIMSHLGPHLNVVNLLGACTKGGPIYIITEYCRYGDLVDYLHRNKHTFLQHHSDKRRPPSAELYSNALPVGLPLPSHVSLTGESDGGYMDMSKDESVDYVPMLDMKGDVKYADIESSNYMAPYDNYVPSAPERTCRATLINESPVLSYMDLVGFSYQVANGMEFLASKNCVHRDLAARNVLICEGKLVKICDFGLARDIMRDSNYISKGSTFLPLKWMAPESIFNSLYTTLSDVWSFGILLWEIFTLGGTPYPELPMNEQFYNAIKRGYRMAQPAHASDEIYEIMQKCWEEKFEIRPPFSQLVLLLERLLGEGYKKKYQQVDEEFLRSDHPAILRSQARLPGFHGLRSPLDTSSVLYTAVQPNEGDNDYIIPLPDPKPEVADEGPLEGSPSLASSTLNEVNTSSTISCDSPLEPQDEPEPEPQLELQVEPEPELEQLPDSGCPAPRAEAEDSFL
Chain of KDR (VEGFR2) protein tyrosine kinase (P35968 20-1356, species assumed): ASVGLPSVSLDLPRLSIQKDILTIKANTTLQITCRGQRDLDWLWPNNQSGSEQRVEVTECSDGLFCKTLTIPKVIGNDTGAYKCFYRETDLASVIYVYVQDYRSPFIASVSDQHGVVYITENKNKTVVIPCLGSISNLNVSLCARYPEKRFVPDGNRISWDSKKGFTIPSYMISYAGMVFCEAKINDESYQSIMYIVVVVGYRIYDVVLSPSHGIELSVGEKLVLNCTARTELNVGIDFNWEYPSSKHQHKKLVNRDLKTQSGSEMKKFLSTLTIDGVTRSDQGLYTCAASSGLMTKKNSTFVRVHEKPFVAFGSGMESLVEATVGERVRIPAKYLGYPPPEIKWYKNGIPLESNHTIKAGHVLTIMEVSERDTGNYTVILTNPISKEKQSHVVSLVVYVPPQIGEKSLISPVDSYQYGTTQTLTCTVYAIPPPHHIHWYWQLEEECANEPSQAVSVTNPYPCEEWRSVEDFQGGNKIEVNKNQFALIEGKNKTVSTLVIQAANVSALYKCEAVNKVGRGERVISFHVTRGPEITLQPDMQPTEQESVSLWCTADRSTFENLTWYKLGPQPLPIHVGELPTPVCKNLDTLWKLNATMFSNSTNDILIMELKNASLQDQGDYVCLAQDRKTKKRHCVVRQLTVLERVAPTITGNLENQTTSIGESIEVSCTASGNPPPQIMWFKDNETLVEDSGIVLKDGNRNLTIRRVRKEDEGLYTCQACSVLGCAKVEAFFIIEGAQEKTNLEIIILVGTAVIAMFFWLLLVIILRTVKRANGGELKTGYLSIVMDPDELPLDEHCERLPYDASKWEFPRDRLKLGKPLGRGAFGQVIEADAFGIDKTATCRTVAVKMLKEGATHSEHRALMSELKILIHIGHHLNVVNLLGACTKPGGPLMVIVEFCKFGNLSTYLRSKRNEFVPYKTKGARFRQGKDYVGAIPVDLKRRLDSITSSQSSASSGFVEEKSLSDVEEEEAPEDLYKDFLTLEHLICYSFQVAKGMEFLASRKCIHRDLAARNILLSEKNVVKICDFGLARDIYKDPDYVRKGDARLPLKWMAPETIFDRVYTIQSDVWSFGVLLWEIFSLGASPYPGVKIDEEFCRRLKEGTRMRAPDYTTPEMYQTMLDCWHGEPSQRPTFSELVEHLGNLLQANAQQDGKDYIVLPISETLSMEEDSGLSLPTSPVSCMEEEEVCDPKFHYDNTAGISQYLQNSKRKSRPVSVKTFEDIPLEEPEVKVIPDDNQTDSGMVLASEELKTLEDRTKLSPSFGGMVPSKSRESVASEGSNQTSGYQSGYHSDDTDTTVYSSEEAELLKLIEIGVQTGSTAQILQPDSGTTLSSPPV

Compound	IC50 [1] [nM]	IC50 [2] [nM]	IC50 (Human HDAC1) [nM]	inhibition of the activity of VEGFR2 tyrosine kinase, conclusion in words ([1]; at the molecular level)	inhibition of the activity of PDGFR-β tyrosine kinase, conclusion in words [2]	inhibition of the activity of HDAC1, conclusion in words (Human HDAC1; at the molecular level)
Cc1cccc(NC(=O)Nc2ccc(-c3nn(CCCCCCCC(=O)NO)c4ncnc(N)c34)cc2)c1 [Compound IIa]	3 ± 1	2.9 ± 1.5	1090 ± 210			
Cc1ccc(F)c(NC(=O)Nc2ccc(-c3nn(CCCCCCCC(=O)NO)c4ncnc(N)c34)cc2)c1 [Compound IIb]	2.2 ± 0.9	0.5 ± 0.1	470 ± 70			
Cc1cccc(NC(=O)Nc2ccc(-c3nn(CCCN(C)CCCC(=O)NO)c4ncnc(N)c34)cc2)c1 [Compound IIc]	572	146	8650	well inhibit	well inhibit	well inhibit
Cc1cccc(NC(=O)Nc2ccc(-c3nn(CCCN(C)CCCC(=O)NO)c4ncnc(N)c34)cc2)c1 [Compound IId]	1190	99.9	13800		well inhibit	

Reference: patent US9695181B2, “Hydroximic acid derivatives and medical applications therof” (Double Rider Medicine Co., LTD., priority 2013, dated 2017)
